# Experimental data: patent US7923561B2 (Hoffmann-La Roche Inc., priority 2006, dated 2011)
# What was measured:
# [1] = target: T1, recombinant human 5-HT5A receptor (Homo sapiens, UniProt P47898); test: [3H]LSD radioligand binding assay, membranes of HEK-EBNA cells transiently expressing 5-HT5A receptors; settings: [3H]LSD approx. 1 nM, SPA beads, 120 min at room temperature; Ki from IC50 by Cheng-Prussoff equation
# T1 construct: expressed in transfected cells; host or cells: HEK-EBNA (Human Embryonic Kidney-EBNA) cells, transient cDNA expression, membranes
# Protocol: A [^3H]LSD radioligand binding assay was used to determine the affinity of the compounds for the recombinant human 5-HT5A receptor, in membranes from transiently (cDNA) expressed 5-HT5A receptors in Human Embryonic Kidney-EBNA (HEK-EBNA) cells. Assay buffer consisted of Tris (50 mM) buffer containing 1 mM EGTA, 10 mM MgCl2 (pH 7.4) and 10 μM pargyline. The binding assay was carried out in 96-well-plates in the presence of [^3H]LSD (approximately 1 nM), approximately 2 μg/well of membrane protein, and 0.5 mg of Ysi-poly-1-lysine SPA beads in a final volume of 200 μl of buffer. Non-specific binding was defined using methiothepin 2 μM. Compounds were tested at 10 concentrations. All assays were conducted in duplicate and repeated at least two times. Assay plates were incubated for 120 min at room temperature before centrifugation. Bound ligand was determined using a Packard Topcount scintillation counter. IC50 values were calculated using a non-linear curve fitting program and Ki values calculated using the Cheng-Prussoff equation.
# T1 sequence (P47898 whole entry): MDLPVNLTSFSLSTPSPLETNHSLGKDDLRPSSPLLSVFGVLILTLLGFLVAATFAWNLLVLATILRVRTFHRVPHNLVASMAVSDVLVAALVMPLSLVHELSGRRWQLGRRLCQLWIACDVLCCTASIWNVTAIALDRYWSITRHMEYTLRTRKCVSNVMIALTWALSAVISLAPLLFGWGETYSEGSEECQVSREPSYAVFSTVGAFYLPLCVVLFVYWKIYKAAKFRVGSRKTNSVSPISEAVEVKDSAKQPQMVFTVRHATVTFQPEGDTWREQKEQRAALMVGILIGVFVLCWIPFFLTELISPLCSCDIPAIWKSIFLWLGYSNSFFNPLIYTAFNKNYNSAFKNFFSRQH
SMILES,Ki [1] [nM],melting point [°C]
"ON=C(c1ccc(F)cc1)c1cccc2nc(N[C@@H]3CCc4ccccc43)ccc12 [Example 89, (4-Fluoro-phenyl)-[2-((R)-indan-1-ylamino)-quinolin-5-yl]-methanone oxime]",2.3,184
"ON=C(c1cccc(F)c1)c1cccc2nc(N[C@@H]3CCc4ccccc43)ccc12 [Example 96, (3-Fluoro-phenyl)-[2-((R)-indan-1-ylamino)-quinolin-5-yl]-methanone oxime]",1.22,179.5
"Cc1nc(-c2cccc3nc(N[C@@H]4CCc5ccccc54)ccc23)no1 [Example 79, (R)-Indan-1-yl-[5-(5-methyl-[1,2,4]oxadiazol-3-yl)-quinolin-2-yl]-amine]",134,105
"O=C(c1ccc(CN2CCOCC2)cc1)c1cccc2nc(N[C@@H]3CCc4ccccc43)ccc12 [Example 103, [2-((R)-Indan-1-ylamino)-quinolin-5-yl]-(4-morpholin-4-ylmethyl-phenyl)-methanone]",678,160
"ON=C(c1ccccc1)c1cccc2nc(N[C@@H]3CCc4ccccc43)ccc12 [Example 91, [2-((R)-Indan-1-ylamino)-quinolin-5-yl]-phenyl-methanone oxime]",1.55,175.5
